{
  "source": "patent US9012500B2",
  "about": "“PKC-ε activator” (Nishizaki Bioinformation Research Institute, priority 2010, dated 2015)",
  "key": {"[1]": {"test_system": "senescence-accelerated mouse (SAMP8)", "assay": "Water maze test in senescence-accelerated mouse (SAMP8)", "assay_type": "in vivo", "conditions": "8 days", "method": "Using senescence-accelerated mouse (accelerated-senescence-prone mice 8: SAMP8) and normal senescence mouse (accelerated-senescence-resistant mice 1: SAMR1) as a control thereof, a water maze test was performed. Male SAMP8 and SAMR1 (22- to 25-week-old) were available from Takeda Pharmaceutical Company Limited (Osaka, Japan). The mice were individually raised in a cage at 23±1° C., 12 hr light/dark cycle (lighted at 7:00 am), and allowed to freely ingest feed (solid feed) and water.\nRacemate DCP-LA and 4 optical isomers DCP-LA (α,α-, α,β-, β,α-, β,β-DCP-LA), each dissolved in 0.1 ml polyethylene glycol (PEG), or 0.1 ml PEG were orally administered once a day from the day when the water maze test was started. For each group, the water maze test was performed twice a day for 8 days, and the time required to reach a platform (acquisition latency) was measured.\nFor the water maze test, a circular plastic water tank (diameter 90 cm, depth 36 cm) was used. The inside of the water tank was completely painted in black, and dark water with India ink was filled up to 20 cm from the bottom (22° C.). A platform (diameter 11 cm) painted in black was placed in water such that it was 1 cm below the water surface. The water tank was placed in a test room, and several marks seen by the mice from the water tank were put thereon. During the test, the position of the marks was not changed. A platform was placed a predetermined position from the equal distance from the center and the end of the water tank, namely, center of one quadrant. At one of the randomly selected 5 points, the mouse was released facing the wall of the water tank, and the time necessary for evacuating on the platform (acquisition latency) was measured. When smoothly evacuated, the mouse was left on the platform for 10 seconds. From the day of water maze test and during the test, polyethylene glycol (PEG) alone or racemate DCP-LA (1 mg/kg), α,α-DCP-LA (0.25 mg/kg), α,β-DCP-LA (0.25 mg/kg), β,α-DCP-LA (0.25 mg/kg), or β,β-DCP-LA (0.25 mg/kg), each dissolved in PEG, was orally administered every day. The water maze test was performed twice a day, and the second test was started at 2 min from the first test. The test was continuously performed for 8 days, and the average value (±SEM) of acquisition latency of continuous 2 days until the mouse reached the platform was calculated (each n=5)."}, "[2]": {"test_system": "glutamic acid release from the hippocampus", "assay": "Glutamic acid release from rat hippocampus sections (HPLC)", "assay_type": "cell-based"}, "[3]": {"test_system": "dopamine release from the striatum", "assay": "Dopamine release from rat striatum sections (HPLC)", "assay_type": "cell-based"}, "[4]": {"test_system": "serotonin release from the hypothalamus", "assay": "Serotonin release from rat hypothalamus sections (HPLC)", "assay_type": "cell-based"}, "nerve cell": {"test_system": "nerve cell", "conditions": "patent document 2; cited from earlier work"}, "PKC-ε": {"biological_target": "T1, PKC-ε (Homo sapiens, UniProt Q02156)", "T1 sequence (Q02156 1-737)": "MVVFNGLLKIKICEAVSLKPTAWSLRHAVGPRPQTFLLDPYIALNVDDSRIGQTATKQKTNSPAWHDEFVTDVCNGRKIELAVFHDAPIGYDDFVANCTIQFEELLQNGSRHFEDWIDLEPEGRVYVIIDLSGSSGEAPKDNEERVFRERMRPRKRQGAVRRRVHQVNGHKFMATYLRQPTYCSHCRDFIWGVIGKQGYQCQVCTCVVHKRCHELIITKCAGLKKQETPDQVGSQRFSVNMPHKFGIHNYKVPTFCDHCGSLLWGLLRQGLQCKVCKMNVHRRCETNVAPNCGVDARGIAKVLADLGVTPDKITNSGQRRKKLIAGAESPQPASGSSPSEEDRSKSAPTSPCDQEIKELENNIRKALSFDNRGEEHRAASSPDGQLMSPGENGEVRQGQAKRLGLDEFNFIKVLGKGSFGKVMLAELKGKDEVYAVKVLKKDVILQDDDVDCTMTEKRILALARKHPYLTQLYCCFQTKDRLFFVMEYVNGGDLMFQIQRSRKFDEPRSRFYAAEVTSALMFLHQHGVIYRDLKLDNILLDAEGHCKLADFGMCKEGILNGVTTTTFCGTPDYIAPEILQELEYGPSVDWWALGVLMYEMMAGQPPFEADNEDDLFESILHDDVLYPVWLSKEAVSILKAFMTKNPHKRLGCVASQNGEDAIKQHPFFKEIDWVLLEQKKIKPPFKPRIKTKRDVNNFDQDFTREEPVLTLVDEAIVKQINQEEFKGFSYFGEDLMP", "conditions": "non-patent document 1; cited from earlier work"}, "[5]": {"biological_target": "α7 nicotinic acetylcholine receptor (Homo sapiens, UniProt P36544)", "sequence (P36544 23-502)": "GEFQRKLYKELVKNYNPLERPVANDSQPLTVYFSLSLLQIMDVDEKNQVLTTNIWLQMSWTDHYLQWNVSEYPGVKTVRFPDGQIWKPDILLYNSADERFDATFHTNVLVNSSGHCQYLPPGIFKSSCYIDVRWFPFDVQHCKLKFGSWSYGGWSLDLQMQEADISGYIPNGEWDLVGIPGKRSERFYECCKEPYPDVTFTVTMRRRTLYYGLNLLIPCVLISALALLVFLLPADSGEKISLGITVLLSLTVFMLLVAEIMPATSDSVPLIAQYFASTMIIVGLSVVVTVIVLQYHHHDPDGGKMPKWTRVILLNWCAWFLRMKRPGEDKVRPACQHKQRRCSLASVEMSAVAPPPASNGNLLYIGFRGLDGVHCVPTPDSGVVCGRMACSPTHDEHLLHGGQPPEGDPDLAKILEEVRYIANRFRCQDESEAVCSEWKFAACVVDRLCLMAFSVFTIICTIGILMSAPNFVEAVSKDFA", "conditions": "α7 nicotinic acetylcholine receptor at the glutamatergic presynaptic terminal as target, non-patent document 5; cited from earlier work"}, "[6]": {"test_system": "senescence-accelerated mouse", "conditions": "non-patent document 2; cited from earlier work"}, "[7]": {"test_system": "amyloid β peptide- or scopolamine-treated rat", "conditions": "non-patent document 4; cited from earlier work"}, "hippocampus nerve cells": {"test_system": "hippocampus nerve cells", "conditions": "non-patent document 3; cited from earlier work"}, "[8]": {"conditions": "SAMP8, 0.25 mg/kg orally once a day"}},
  "data": [
    {"smiles": "CCCCC[C@H]1C[C@H]1C[C@@H]1C[C@H]1CCCCCCCC(=O)O", "note": "[β,β-DCP-LA, 8-[(1R,2S)-2-{(1S,2S)-2-pentylcyclopropylmethyl}-cyclopropyl]octanoic acid]", "values": [
      {"measurement": "acquisition latency as compared to the PEG administration group", "setting": "[1]; [8]", "result": "shortened acquisition latency"}
    ]},
    {"smiles": "CCCCC[C@@H]1C[C@@H]1C[C@H]1C[C@@H]1CCCCCCCC(=O)O", "note": "[α,α-DCP-LA, 8-[(1S,2R)-2-{(1R,2R)-2-pentylcyclopropylmethyl}-cyclopropyl]octanoic acid]", "values": [
      {"measurement": "acquisition latency as compared to the PEG administration group", "setting": "[1]; [8]", "result": "shortened acquisition latency"},
      {"measurement": "acquisition latency as compared to the racemate DCP-LA (1 mg/kg) administration group", "setting": "[1]; [8]", "result": "significantly shortened acquisition latency"}
    ]},
    {"smiles": "CCCCC[C@H]1C[C@H]1C[C@H]1C[C@@H]1CCCCCCCC(=O)O", "note": "[β,α-DCP-LA, 8-[(1S,2R)-2-{(1S,2S)-2-pentylcyclopropylmethyl}-cyclopropyl]octanoic acid]", "values": [
      {"measurement": "acquisition latency as compared to the PEG administration group", "setting": "[1]; [8]", "result": "shortened acquisition latency"}
    ]},
    {"smiles": "CN(C)CCCn1cc(C2=C(c3c[nH]c4ccccc34)C(=O)NC2=O)c2ccccc21", "note": "[GF109203X, reference compound]", "values": [
      {"measurement": "effect of inhibitor on α,β-DCP-LA enhancement of nicotine-caused glutamic acid release", "setting": "[2]; inhibitor 100 nM, FIG. 9", "result": "inhibited"},
      {"measurement": "effect of inhibitor on α,β-DCP-LA enhancement of nicotine-caused dopamine release", "setting": "[3]; inhibitor 100 nM, FIG. 12", "result": "inhibited"},
      {"measurement": "effect of inhibitor on α,β-DCP-LA enhancement of nicotine-caused serotonin release", "setting": "[4]; inhibitor 100 nM, FIG. 15", "result": "inhibited"}
    ]},
    {"smiles": "CN1CCCC1c1cccnc1", "note": "(centres unmarked) [nicotine, reference compound]", "values": [
      {"measurement": "glutamic acid release, substance alone vs non-treated group", "setting": "[2]", "result": "did not show a remarkable difference"},
      {"measurement": "dopamine release, substance alone vs non-treated group", "setting": "[3]", "result": "did not show a remarkable difference"},
      {"measurement": "serotonin release, substance alone vs non-treated group", "setting": "[4]", "result": "did not show a remarkable difference"}
    ]},
    {"smiles": "CCCCCC1CC1CC1CC1CCCCCCCC(=O)O", "note": "(racemic) [racemate DCP-LA, 8-(2-(2-pentyl-cyclopropylmethyl)-cyclopropyl)-octanoic acid]", "values": [
      {"measurement": "nerve cell death induced by oxidative stress", "setting": "nerve cell", "result": "suppress nerve cell death"},
      {"measurement": "PKC-ε activation", "setting": "PKC-ε", "result": "selectively and directly activates PKC-ε"},
      {"measurement": "hippocampus synaptic transmission", "setting": "[5]", "result": "promotes hippocampus synaptic transmission"},
      {"measurement": "cognitive dysfunction of senescence-accelerated mouse", "setting": "[6]", "result": "improves cognitive dysfunction"},
      {"measurement": "acquisition latency as compared to the PEG administration group", "setting": "[1]; SAMP8, 1 mg/kg orally once a day", "result": "shortened acquisition latency"},
      {"measurement": "cognitive dysfunction of amyloid β peptide- or scopolamine-treated rat", "setting": "[7]", "result": "improves cognitive dysfunction"},
      {"measurement": "release of γ aminobutyric acid from hippocampus nerve cells", "setting": "hippocampus nerve cells", "result": "increases release of γ aminobutyric acid"}
    ]}
  ]
}
